# Like-named read-outs stand apart in the source and are kept apart here.
# Legend:
# [1] = tested on: HS 578T; assay: NCI-60 anticancer screen (SRB; single dose and five doses); conditions: Homo sapiens
# [2] = tested on: A549/ATCC; assay: as above; conditions: Homo sapiens
# [3] = tested on: UACC-62; assay: as above; conditions: Homo sapiens
# [4] = tested on: RXF 393; assay: as above; conditions: Homo sapiens
# [5] = tested on: LOX IMVI; assay: as above; conditions: Homo sapiens
# [6] = tested on: K-562; assay: as above; conditions: Homo sapiens
# [7] = tested on: MALME-3M; assay: as above; conditions: Homo sapiens
# [8] = tested on: HOP-92; assay: as above; conditions: Homo sapiens
# [9] = tested on: BT-549; assay: as above; conditions: Homo sapiens
# [10] = tested on: HOP-62; assay: as above; conditions: Homo sapiens
# [11] = tested on: NCI/ADR-RES; assay: as above; conditions: Homo sapiens
# [12] = tested on: 60 human tumor cell lines panel; assay: NCI-60 anticancer screen, whole panel (means and ranges over the cell lines); assay type: cell-based; conditions: Homo sapiens, 48 h, dose of 10 μM
# [13] = tested on: SF-268; assay: NCI-60 anticancer screen (SRB; single dose and five doses); conditions: Homo sapiens
# [14] = tested on: CAKI-1; assay: as above; conditions: Homo sapiens
# [15] = tested on: HL-60(TB); assay: as above; conditions: Homo sapiens, HL-60
# [16] = 48 h, read-out: Growth Percentage
smiles,measurement,setting,value
"COc1cc(/C=C/C(=O)c2sc(=S)[nH]c2C)cc(OC)c1OC [2p, (E)-1-(4-Methyl-2-Thioxo-2,3-Dihydrothiazol-5-yl)-3-(3,4,5-Trimethoxyphenyl)Prop-2-En-1-One]",GI50,[1],2.88 µM
same,IC50,[1],> 100 µM
same,activity at 10 µM,[1]; [16],3.94%
same,CC50,[1]; read-out: LC50,> 100 µM
same,IC (TGI),[1]; read-out: TGI,39.8 µM
same,GI50,[2]; A549,3.55 µM
same,IC50,[2]; A549,5.01 µM
same,activity at 10 µM,"[2]; A549, 48 h, read-out: Growth Percentage",26.6%
same,CC50,"[2]; A549, read-out: LC50",44.7 µM
same,IC (TGI),"[2]; A549, read-out: TGI",13.8 µM
same,GI50,[3]; UACC-62,2.82 µM
same,IC50,[3]; UACC-62,5.37 µM
same,activity at 10 µM,"[3]; UACC-62, 48 h, read-out: Growth Percentage",-3.11%
same,IC (TGI),"[3]; UACC-62, read-out: TGI",12.3 µM
same,GI50,[4]; RXF 393,2.51 µM
same,IC50,[4]; RXF 393,11.2 µM
same,activity at 10 µM,"[4]; RXF 393, 48 h, read-out: Growth Percentage",30.3%
same,CC50,"[4]; RXF 393, read-out: LC50",30.9 µM
same,IC (TGI),"[4]; RXF 393, read-out: TGI",7.08 µM
same,GI50,[5],3.24 µM
same,IC50,[5],4.47 µM
same,activity at 10 µM,[5]; [16],17.1%
same,CC50,[5]; read-out: LC50,38.9 µM
same,IC (TGI),[5]; read-out: TGI,12 µM
same,GI50,[6]; K562,3.02 µM
same,IC50,[6]; K562,3.72 µM
same,activity at 10 µM,"[6]; K562, 48 h, read-out: Growth Percentage",8.21%
same,CC50,"[6]; K562, read-out: LC50",> 100 µM
same,IC (TGI),"[6]; K562, read-out: TGI",> 100 µM
same,GI50,[7],5.75 µM
same,IC50,[7],17.8 µM
same,CC50,[7]; read-out: LC50,55 µM
same,IC (TGI),[7]; read-out: TGI,20.4 µM
same,GI50,[8]; HOP-92,2.95 µM
same,IC50,[8]; HOP-92,44.7 µM
same,activity at 10 µM,"[8]; HOP-92, 48 h, read-out: Growth Percentage",16.4%
same,CC50,"[8]; HOP-92, read-out: LC50",> 100 µM
same,IC (TGI),"[8]; HOP-92, read-out: TGI",19.9 µM
same,GI50,[9]; BT-549,2.95 µM
same,IC50,[9]; BT-549,11.8 µM
same,activity at 10 µM,"[9]; BT-549, 48 h, read-out: Growth Percentage",-11.8%
same,IC (TGI),"[9]; BT-549, read-out: TGI",10.7 µM
same,GI50,[10]; HOP-62,3.16 µM
same,IC50,[10]; HOP-62,5.37 µM
same,activity at 10 µM,"[10]; HOP-62, 48 h, read-out: Growth Percentage",4.61%
same,CC50,"[10]; HOP-62, read-out: LC50",> 100 µM
same,IC (TGI),"[10]; HOP-62, read-out: TGI",16.2 µM
same,GI50,[11],2.4 µM
same,IC50,[11],4.37 µM
same,activity at 10 µM,[11]; [16],0.58%
same,CC50,[11]; read-out: LC50,> 100 µM
same,IC (TGI),[11]; read-out: TGI,7.41 µM
same,activity at 10 µM,"[12]; mean over the tested cell lines, read-out: Mean growth percentage",14.9%
same,activity at 10 µM,"[12]; range over the cell lines, read-out: growth percentages against most of the tested cells (lowest to highest)",-64.6 to 96.5%
same,GI50,[13]; SF-268,2.63 µM
same,IC50,[13]; SF-268,6.46 µM
same,activity at 10 µM,"[13]; SF-268, 48 h, read-out: Growth Percentage",18.5%
same,CC50,"[13]; SF-268, read-out: LC50",55 µM
same,IC (TGI),"[13]; SF-268, read-out: TGI",11.2 µM
same,GI50,[14]; CAKI-1,2.57 µM
same,IC50,[14]; CAKI-1,4.68 µM
same,activity at 10 µM,"[14]; CAKI-1, 48 h, read-out: Growth Percentage",28.2%
same,CC50,"[14]; CAKI-1, read-out: LC50",45.7 µM
same,IC (TGI),"[14]; CAKI-1, read-out: TGI",13.2 µM
same,GI50,[15],2.57 µM
same,IC50,[15],3.89 µM
